Three compounds from patent US8012956B2, “Tropane compounds” (Exelixis, Inc., priority 2007, dated 2011) can be followed below.

This test concerns the target HSP90 (Homo sapiens, UniProt P07900). Kind of test: HSP90 inhibition (HSP90 IC50). Format: biochemical.
The IC50 is the concentration that inhibits the measured activity by half. A high value points to a need for much substance. Consider `COc1cccc(C(=O)N[C@H]2C[C@H]3CC[C@@H](C2)N3c2ccc(C(=O)NCc3cnc(C)cn3)cn2)c1C` [6-[3-endo-({[2-methyl-3-(methyloxy)phenyl]carbonyl}amino)-8-azabicyclo[3.2.1]oct-8-yl]-N-[(5-methylpyrazin-2-yl)methyl]pyridine-3-carboxamide], for which the IC50 is less than 500 nM.
Regarding `COc1cccc(C(=O)N[C@H]2C[C@H]3CC[C@@H](C2)N3c2ccc(C(=O)Nc3ccc(OCCN(C)C)cc3)cn2)c1C` [N-(4-{[2-(dimethylamino)ethyl]oxy}phenyl)-6-[3-endo-({[2-methyl-3-(methyloxy)phenyl]carbonyl}amino)-8-azabicyclo[3.2.1]oct-8-yl]pyridine-3-carboxamide], the IC50 lay in the range of 500 to 999 nM.
`NC(=O)c1ccc(C(=O)N[C@H]2C[C@H]3CC[C@@H](C2)N3c2ccc(C(=O)CCC3CCCCC3)cn2)cc1NCC1CC1` [N4-{8-[5-(3-cyclohexylpropanoyl)pyridin-2-yl]-8-azabicyclo[3.2.1]oct-3-endo-yl}-2-[(cyclopropylmethyl)amino]benzene-1,4-dicarboxamide] displayed an IC50 of 1000 to 2000 nM.
